# Laboratory results taken from article PMC7031696 (Cell chemical biology, 2019).
# Read-outs that look alike come from different tables or passages of the source.
# Columns and labels:
# [1] = test system: 3D7-MR4 trophozoite parasite-infected RBCs; assay: Metabolomic profiling (hydrophilic metabolite changes, UHPLC-MS); type: cell-based, Plasmodium falciparum
# [2] = test system: asynchronous 3D7-A10 parasite cultures; assay: Standard 72-h exposure asexual blood stage susceptibility assay (IC50^72h); type: cell-based, Plasmodium falciparum; settings: Plasmodium falciparum, 3D7, 72 h, read-out: Overall (72hr assay) Mean IC50 (IC50^72h)
# [3] = test system: 3D7-A10 or Dd2-B2 parasites; assay: Resistance selections (single step, pulsing or ramping); type: cell-based, Plasmodium falciparum
# [4] = test system: Plasmodium falciparum 3D7-A10 parasites; assay: Stage specificity assay (8-h exposure of synchronized stages, IC50^8h); type: cell-based; settings: for IC50: Plasmodium falciparum
# [5] = 10 × IC50^72h, 2.5 hr, trophozoites
compound,measurement,setting,value
CCCOCc1cc(CN2CCN(c3cccc(Cl)c3)CC2)c(O)c2ncccc12 [MMV000787],metabolic signature: increases in the pyrimidine precursors dihydroorotate and N-carbamoyl-L-aspartate (mETC disruption),[1]; [5],observed
same,orotidine 5-P levels,[1]; [5],decreased
same,Log2(fold changes) 3-phosphoglycerate,"[1]; metabolite 3-phosphoglycerate, log2 fold change",-0.5371
same,Log2(fold changes) 4-Pyridoxic acid,"[1]; metabolite 4-Pyridoxic acid, log2 fold change",-0.4654
same,Log2(fold changes) 4-aminobutyrate,"[1]; metabolite 4-aminobutyrate, log2 fold change",0.0414
same,Log2(fold changes) 4-phosphopantetheine,"[1]; metabolite 4-phosphopantetheine, log2 fold change",0.0000
same,Log2(fold changes) 4-phosphopantothenate,"[1]; metabolite 4-phosphopantothenate, log2 fold change",-0.5845
same,Log2(fold changes) 5-aminopentanoic acid,"[1]; metabolite 5-aminopentanoic acid, log2 fold change",0.0000
same,Log2(fold changes) 5-methyl-THF,"[1]; metabolite 5-methyl-THF, log2 fold change",0.0000
same,Log2(fold changes) 5-phosphoribosyl-1-pyrophosphate,"[1]; metabolite 5-phosphoribosyl-1-pyrophosphate, log2 fold change",0.0000
same,Log2(fold changes) 6-phospho-D-gluconate,"[1]; metabolite 6-phospho-D-gluconate, log2 fold change",-0.3590
same,Log2(fold change) HVDD,[1]; metabolite HVDD,-0.3092
same,Log2(fold change) Hydroxyisocaproic acid,[1]; metabolite Hydroxyisocaproic acid,0.0000
same,Log2(fold change) IDP,[1]; metabolite IDP,0.0000
same,Log2(fold change) IMP,[1]; metabolite IMP,-0.1140
same,Log2(fold change) Inositol,[1]; metabolite Inositol,0.0000
same,Log2(fold change) Isopentyl-PP,[1]; metabolite Isopentyl-PP,-1.2940
same,Log2(fold change) L-arginino-succinate,[1]; metabolite L-arginino-succinate,0.4157
same,Log2(fold change) LD,[1]; metabolite LD,0.2463
same,Log2(fold change) Myristoyl/tetradecanoyl-CoA,[1]; metabolite Myristoyl/tetradecanoyl-CoA,0.0000
same,Log2(fold change) N-Acetyl-L-alanine,[1]; metabolite N-Acetyl-L-alanine,-0.3215
same,Log2(fold change) N-acetyl-L-ornithine,[1]; metabolite N-acetyl-L-ornithine,-0.0825
same,Log2(fold change) N-acetyl-glucosamine-1/6-phosphate,[1]; metabolite N-acetyl-glucosamine-1/6-phosphate,-0.1305
same,Log2(fold change) N-acetyl-glutamate,[1]; metabolite N-acetyl-glutamate,-0.2597
same,Log2(fold change) N-acetyl-glutamine,[1]; metabolite N-acetyl-glutamine,-0.3137
same,Log2(fold change) N-carbamoyl-L-aspartate,[1]; metabolite N-carbamoyl-L-aspartate,1.8530
same,Log2(fold change) NAD+,[1]; metabolite NAD+,-0.4850
same,Log2(fold change) NADH,[1]; metabolite NADH,0.6916
same,Log2(fold change) NADP+,[1]; metabolite NADP+,-0.1054
same,Log2(fold change) NADPH,[1]; metabolite NADPH,0.8357
same,Log2(fold change) O-acetyl-L-serine,[1]; metabolite O-acetyl-L-serine,0.0023
same,Log2(fold change) Octoluse 8/1P,[1]; metabolite Octoluse 8/1P,-0.4530
same,Log2(fold change) Octoluse Bisphosphate,[1]; metabolite Octoluse Bisphosphate,-0.4981
same,Log2(fold change) PD,[1]; metabolite PD,0.8974
same,Log2(fold change) PE,[1]; metabolite PE,0.4326
same,Log2(fold change) PEE,[1]; metabolite PEE,-0.3726
same,Log2(fold change) PEEK,[1]; metabolite PEEK,0.6684
same,Log2(fold change) PVNF,[1]; metabolite PVNF,-0.7950
same,Log2(fold change) Pyroglutamic acid,[1]; metabolite Pyroglutamic acid,-0.5088
same,Log2(fold change) Pyrophosphate,[1]; metabolite Pyrophosphate,0.0000
same,Log2(fold change) Ribose-5-phosphate,[1]; metabolite Ribose-5-phosphate,-0.4878
same,Log2(fold change) S-adenosyl-L-homocysteine,[1]; metabolite S-adenosyl-L-homocysteine,-0.1665
same,Log2(fold change) S-adenosyl-L-methioninamine,[1]; metabolite S-adenosyl-L-methioninamine,1.4172
same,Log2(fold change) S-adenosyl-L-methionine,[1]; metabolite S-adenosyl-L-methionine,0.0000
same,Log2(fold change) S-methyl-5'-thioadenosine,[1]; metabolite S-methyl-5'-thioadenosine,0.1323
same,Log2(fold change) SD,[1]; metabolite SD,0.5833
same,Log2(fold change) SDL,[1]; metabolite SDL,0.0000
same,Log2(fold change) SID,[1]; metabolite SID,0.2266
same,Log2(fold change) Sedoheptulose bisphosphate,[1]; metabolite Sedoheptulose bisphosphate,-0.5430
same,Log2(fold change) Thiamine pyrophosphate,[1]; metabolite Thiamine pyrophosphate,-0.2018
same,Log2(fold changes) UDP-D-glucose,"[1]; metabolite UDP-D-glucose, log2 fold change",-0.1946
same,Log2(fold changes) UDP-D-glucuronate,"[1]; metabolite UDP-D-glucuronate, log2 fold change",-0.2169
same,Log2(fold changes) UDP-N-acetyl-glucosamine,"[1]; metabolite UDP-N-acetyl-glucosamine, log2 fold change",-0.3874
same,Log2(fold changes) UDP,"[1]; metabolite UDP, log2 fold change",-0.9589
same,Log2(fold changes) UMP,"[1]; metabolite UMP, log2 fold change",-0.1735
same,Log2(fold changes) UTP,"[1]; metabolite UTP, log2 fold change",0.0000
same,Log2(fold change) hydroxyphenylpyruvate,[1]; metabolite hydroxyphenylpyruvate,0.0000
same,Log2(fold change) hydroxyproline/Aminolevulinate,[1]; metabolite hydroxyproline/Aminolevulinate,-0.3494
same,Log2(fold change) hypoxanthine,[1]; metabolite hypoxanthine,-0.2301
same,Log2(fold change) indole,[1]; metabolite indole,0.0000
same,Log2(fold change) inosine,[1]; metabolite inosine,-0.0358
same,Log2(fold change) isoleucine,[1]; metabolite isoleucine,0.0000
same,Log2(fold change) lactate,[1]; metabolite lactate,-0.6338
same,Log2(fold change) leucine,[1]; metabolite leucine,0.0000
same,Log2(fold change) lysine,[1]; metabolite lysine,-0.1255
same,Log2(fold change) malate,[1]; metabolite malate,0.0012
same,Log2(fold change) maleic acid,[1]; metabolite maleic acid,0.0284
same,Log2(fold change) methionine,[1]; metabolite methionine,-0.0998
same,Log2(fold change) myo-inositol,[1]; metabolite myo-inositol,-0.7776
same,Log2(fold change) nicotinamide mononucleotide,[1]; metabolite nicotinamide mononucleotide,-0.2457
same,Log2(fold change) nicotinate,[1]; metabolite nicotinate,-0.3114
same,Log2(fold change) ornithine,[1]; metabolite ornithine,0.0122
same,Log2(fold change) orotate,[1]; metabolite orotate,0.0632
same,Log2(fold change) orotidine-5'-phosphate,[1]; metabolite orotidine-5'-phosphate,-0.3294
same,Log2(fold change) oxaloacetate,[1]; metabolite oxaloacetate,-0.6486
same,Log2(fold change) p-aminobenzoate,[1]; metabolite p-aminobenzoate,0.0000
same,Log2(fold change) p-hydroxybenzoate,[1]; metabolite p-hydroxybenzoate,0.0000
same,Log2(fold change) pantothenate,[1]; metabolite pantothenate,-0.1388
same,Log2(fold change) phenylalanine,[1]; metabolite phenylalanine,-0.3732
same,Log2(fold change) phenylpyruvate,[1]; metabolite phenylpyruvate,0.0000
same,Log2(fold change) phosphoenolpyruvate,[1]; metabolite phosphoenolpyruvate,-0.1822
same,Log2(fold change) prephenate,[1]; metabolite prephenate,0.5798
same,Log2(fold change) proline,[1]; metabolite proline,-0.4229
same,Log2(fold change) pyridoxine,[1]; metabolite pyridoxine,-0.3069
same,Log2(fold change) pyruvate,[1]; metabolite pyruvate,-1.0960
same,Log2(fold change) riboflavin,[1]; metabolite riboflavin,-0.1793
same,Log2(fold change) ribose,[1]; metabolite ribose,-0.0760
same,Log2(fold change) ribose-phosphate,[1]; metabolite ribose-phosphate,-0.9121
same,Log2(fold change) ribulose-5-phosphate,[1]; metabolite ribulose-5-phosphate,-0.5577
same,Log2(fold change) serine,[1]; metabolite serine,-0.1539
same,Log2(fold change) sn-glycerol-3-phosphate,[1]; metabolite sn-glycerol-3-phosphate,0.0054
same,Log2(fold change) succinate/Methylmalonic acid,[1]; metabolite succinate/Methylmalonic acid,-0.5977
same,Log2(fold change) succinyl-CoA/methylmalonyl-CoA,[1]; metabolite succinyl-CoA/methylmalonyl-CoA,0.0000
same,Log2(fold change) taurine,[1]; metabolite taurine,-0.2559
same,Log2(fold change) thiamine,[1]; metabolite thiamine,-0.2060
same,Log2(fold change) threonine/homoserine,[1]; metabolite threonine/homoserine,-0.2606
same,Log2(fold change) thymidine,[1]; metabolite thymidine,0.0000
same,Log2(fold changes) thymine,"[1]; metabolite thymine, log2 fold change",0.0000
same,Log2(fold changes) trehalose-6-Phosphate,"[1]; metabolite trehalose-6-Phosphate, log2 fold change",0.0000
same,Log2(fold changes) tryptophan,"[1]; metabolite tryptophan, log2 fold change",-0.8402
same,Log2(fold changes) tyrosine,"[1]; metabolite tyrosine, log2 fold change",-0.1716
same,Log2(fold changes) uridine,"[1]; metabolite uridine, log2 fold change",0.0000
same,IC50,[2],1.96 µM
same,outcome of resistance selections (continuous exposure or pulsing),"[3]; 5 × 10^8 to 1 × 10^9 3D7-A10 or Dd2-B2 parasites, 3–6 × IC50^72h",did not result in MMV000787-resistant parasites
same,minimum inocula of resistance,[3]; from failed selections in 3D7-A10 / Dd2-B2,above 5 × 10^8 parasites
same,Ratio lowest IC50 8hr/IC50 72hr,[4]; 3D7-A10,0.7
same,killing in stage specificity assay,"[4]; 8-h exposures, survival curves",incomplete killing
same,IC50,"[4]; 3D7, 8 h, read-out: IC50^8h values at all tested stages, 8-h exposures, all asexual blood stages",> 1 µM
same,IC50,"[4]; 3D7, read-out: Early rings Mean IC50 (IC50^8h), 8-h exposure 0–8 hr, 3D7-A10, survival at 60 h",5.74 µM
same,IC50,"[4]; 3D7, read-out: Early trophozoites Mean IC50 (IC50^8h), 8-h exposure 16–24 hr, 3D7-A10, survival at 60 h",3.31 µM
same,IC50,"[4]; 3D7, read-out: Late rings Mean IC50 (IC50^8h), 8-h exposure 8–16 hr, 3D7-A10, survival at 60 h",7.87 µM
same,IC50,"[4]; 3D7, read-out: Late trophozoites Mean IC50 (IC50^8h), 8-h exposure 24–32 hr, 3D7-A10, survival at 60 h",1.35 µM
same,IC50,"[4]; 3D7, read-out: Schizonts Mean IC50 (IC50^8h), 8-h exposure 32–40 hr, 3D7-A10, survival at 60 h",5.91 µM
same,Stage of peak activity (Figure 6),[4]; period when the parasite was most susceptible (lowest IC50^8h),late trophozoites
same,Peak Activity (Table S1),[4]; stage(s) with the lowest IC50^8h,Late Trophs
